ChEMBL document CHEMBL5244272 (Eur J Med Chem, 2021)

Columns and labels:
Plasmodium berghei [1] = assay: Antimalarial activity against Plasmodium berghei infected in mouse; assay type: functional
Plasmodium falciparum [2] = assay: Antimalarial activity against Plasmodium falciparum 3D7; assay type: functional, organism-based
Plasmodium falciparum [3] = assay: Antimalarial activity against ART-sensitive Plasmodium falciparum W2; assay type: functional, organism-based
Plasmodium falciparum [4] = assay: Antimalarial activity against ART-sensitive Plasmodium falciparum NF54; assay type: functional, organism-based
Plasmodium falciparum [5] = assay: Antimalarial activity against ART-resistant Plasmodium falciparum Dd2 harboring R539T mutant; assay type: functional, organism-based
Plasmodium falciparum [6] = assay: Antimalarial activity against ART-resistant Plasmodium falciparum NF54 harboring […] mutant; assay type: functional, organism-based
Plasmodium falciparum [7] = assay: Antimalarial activity against Plasmodium falciparum Dd2; assay type: functional, organism-based
Plasmodium falciparum [8] = assay: Antimalarial activity against Plasmodium falciparum HB3; assay type: functional, organism-based
Plasmodium falciparum [9] = assay: Antimalarial activity against Plasmodium falciparum SGE2; assay type: functional, organism-based
Plasmodium falciparum [10] = assay: Antimalarial activity against Plasmodium falciparum IPC5202; assay type: functional, organism-based
Plasmodium falciparum [11] = assay: Antimalarial activity against Plasmodium falciparum IPC4912; assay type: functional, organism-based
Plasmodium falciparum [12] = assay: Antimalarial activity against Plasmodium falciparum IV-V gametocytes; assay type: functional, organism-based
Plasmodium falciparum [13] = assay: Antimalarial activity against Plasmodium falciparum K1; assay type: functional, organism-based
Plasmodium falciparum [14] = assay: Antimalarial activity against chloroquine sensitive Plasmodium falciparum FCR-3; assay type: functional, organism-based
Plasmodium berghei [15] = assay: Antimalarial activity against Plasmodium berghei N strain infected in mouse at 15 mg/kg, ip administered once daily for 4 days; assay type: functional; conditions: time 4 day
[16] = Cytotoxicity against human MRC5 cells; assay type: toxicity, cell-based
Plasmodium falciparum [17] = assay: Antimalarial activity against Plasmodium falciparum; assay type: functional, organism-based
Plasmodium berghei [18] = assay: Antimalarial activity against Plasmodium berghei ANKA infected in mouse at 30 mg/kg, po; assay type: functional
Plasmodium falciparum [19] = assay: Potency index, ratio of artesunate IC50 to test compound IC50 for chloroquine resistant Plasmodium falciparum; assay type: functional
Plasmodium falciparum [20] = assay: Antimalarial activity against Plasmodium falciparum D6; assay type: functional, organism-based
Plasmodium falciparum [21] = assay: Antimalarial activity against Plasmodium falciparum W2; assay type: functional, organism-based
Plasmodium berghei [22] = assay: Antimalarial activity against Plasmodium berghei infected in mouse assessed as increase in survival at 100 mg/kg, po; assay type: functional
Plasmodium vinckei [23] = assay: Antimalarial activity against Plasmodium vinckei infected in ip dosed mouse; assay type: functional
Plasmodium vinckei [24] = assay: Antimalarial activity against Plasmodium vinckei infected in po dosed mouse; assay type: functional
Plasmodium falciparum [25] = assay: Antimalarial activity against chloroquine resistant Plasmodium falciparum; assay type: functional, organism-based
Plasmodium falciparum [26] = assay: Antimalarial activity against Plasmodium falciparum NF54; assay type: functional, organism-based
[27] = Selectivity index, ratio of IC50 for HEK293 cells to IC50 for Plasmodium falciparum NF54; assay type: toxicity; conditions: human, read-out: Ratio IC50
Plasmodium falciparum [28] = assay: Antimalarial activity against ART-resistant Plasmodium falciparum harboring R539T mutant assessed as increase in survival at 700 nM; assay type: functional
Plasmodium berghei [29] = assay: Antimalarial activity against Plasmodium berghei infected in mouse assessed cured animal rate measured after 25 days; assay type: functional; conditions: time 25 day
Plasmodium berghei [30] = assay: Antimalarial activity against Plasmodium berghei infected in mouse assessed reduction in parasitemia measured after 4 days; assay type: functional; set-up: scale not given: the % may be the effect or the level left; conditions: time 4 day
Plasmodium berghei [31] = assay: Antimalarial activity against Plasmodium berghei infected in mouse assessed increase in survival time; assay type: functional
Plasmodium berghei [32] = assay: Antimalarial activity against Plasmodium berghei infected in mouse at less than 10 mg/kg, po; assay type: functional
Plasmodium yoelii [33] = assay: Antimalarial activity against Plasmodium yoelii infected in sc dosed mouse; assay type: functional
Plasmodium berghei [34] = assay: Antimalarial activity against Plasmodium berghei infected in sc dosed mouse; assay type: functional; conditions: Plasmodium berghei
Plasmodium berghei [35] = assay: Potency index, ratio of artesunate ED90 to test compound ED90 for Plasmodium berghei; assay type: functional
Plasmodium yoelii [36] = assay: Potency index, ratio of artesunate ED90 to test compound ED90 for Plasmodium yoelii; assay type: functional

C[C@H]1[C@@H](O)O[C@@H]2O[C@@]3(C)CC[C@H]4[C@H](C)CC[C@@H]1[C@@]24OO3 [ARTENIMOL]
ED50 (Plasmodium berghei [1]; Plasmodium berghei): 1.15 mg/kg | IC50 (Plasmodium falciparum [2]): 4.7 nM | IC50 (Plasmodium falciparum [3]): 1 nM | IC50 (Plasmodium falciparum [4]): 1.5 nM | IC50 (Plasmodium falciparum [5]): 1.4 nM | IC50 (Plasmodium falciparum [6]): 1.1 nM | IC50 (Plasmodium falciparum [7]): 4.2 nM | IC50 (Plasmodium falciparum [8]): 5 nM | IC50 (Plasmodium falciparum [9]): 9 nM | IC50 (Plasmodium falciparum [10]): 6.2 nM | IC50 (Plasmodium falciparum [11]): 3.7 nM | IC50 (Plasmodium falciparum [12]): 440 nM

Cn1nnc(NCC2CC[C@]3(CC2)OO[C@]2(O3)C3CC4CC(C3)CC2C4)n1 (stereo not given in full)
IC50 (Plasmodium falciparum [2]): 2.9 nM | IC50 (Plasmodium falciparum [7]): 2.1 nM | IC50 (Plasmodium falciparum [10]): 3.4 nM | IC50 (Plasmodium falciparum [11]): 4.8 nM

C[C@H]1C(=O)O[C@@H]2O[C@]3(C)CC[C@H]4N(Cc5ccc(OCCN6CCOCC6)cc5)CC[C@@H]1[C@@]24OO3
IC50 (Plasmodium falciparum [13]): 33 nM | IC50 (Plasmodium falciparum [14]): 18 nM | Activity (Plasmodium berghei [15]): 98.6% | IC50 [16]: 35600 nM

COC1(c2ccc(S(C)(=O)=O)cc2)CCC2(CCCCC2)OO1 (stereo not given)
IC50 (Plasmodium falciparum [17]): 31 nM

O=C(CC1CCC2(CC1)OOC1(OO2)C2CC3CC(C2)CC1C3)NC1CC1 (stereo not given)
Activity (Plasmodium berghei [18]): 100%

C[C@H]1[C@H](CCCO)O[C@@H]2O[C@]3(C)CC[C@H]4[C@H](C)CC[C@@H]1[C@@]24OO3
Ratio IC50 (Plasmodium falciparum [19]): 5 | IC50 (Plasmodium falciparum [17]): 0.23 ng/mL

C1C2CC3CC1CC(C2)[C@]31OO[C@@]2(CCC(Nc3nn[nH]n3)CC2)O1 (stereo not given in full)
IC50 (Plasmodium falciparum [2]): 2.8 nM | IC50 (Plasmodium falciparum [7]): 2.5 nM | IC50 (Plasmodium falciparum [10]): 6.1 nM | IC50 (Plasmodium falciparum [11]): 6.8 nM

C[C@H]1[C@@H](OCC(CO[C@H]2O[C@@H]3O[C@]4(C)CC[C@H]5[C@H](C)CC[C@@H]([C@H]2C)[C@@]35OO4)=NO)O[C@@H]2O[C@]3(C)CC[C@H]4[C@H](C)CC[C@@H]1[C@@]24OO3
IC50 (Plasmodium falciparum [20]): 13.8 nM | IC50 (Plasmodium falciparum [21]): 9.9 nM | Activity (Plasmodium berghei [22]): 100%

C[C@H]1[C@@H](OCCNCCNc2ccnc3cc(Cl)ccc23)O[C@@H]2O[C@]3(C)CC[C@H]4[C@H](C)CC[C@@H]1[C@@]24OO3
IC50 (Plasmodium falciparum [2]): 20.5 nM | ED50 (Plasmodium vinckei [23]): 1.4 mg/kg | ED50 (Plasmodium vinckei [24]): 16 mg/kg

COCCC[C@]12O[C@H]([C@@H]3OO[C@H]1O3)[C@H](C)C(=O)[C@@H]2C
IC50 (Plasmodium falciparum [25]): 2 microg/cm3

C[C@H]1[C@@H](OCCNCCCNc2ccnc3cc(Cl)ccc23)O[C@@H]2O[C@]3(C)CC[C@H]4[C@H](C)CC[C@@H]1[C@@]24OO3
IC50 (Plasmodium falciparum [2]): 5.2 nM | ED50 (Plasmodium vinckei [23]): < 0.8 mg/kg | ED50 (Plasmodium vinckei [24]): 13 mg/kg

CC(C)CCC[C@H](C)C1CC[C@H]2[C@@H]3CC=C4C[C@@H](OC(=O)CCCCCN5CCN([C@H]6O[C@@H]7O[C@]8(C)CC[C@H]9[C@H](C)CC[C@@H]([C@H]6C)[C@@]79OO8)CC5)CC[C@]4(C)[C@H]3CC[C@]12C (stereo not given in full)
IC50 (Plasmodium falciparum [21]): 70 nM | IC50 (Plasmodium falciparum [13]): 52 nM | IC50 (Plasmodium falciparum [26]): 78 nM | selectivity ratio [27]: 1820

CC(C)CCC[C@H](C)C1CC[C@H]2[C@@H]3CC=C4C[C@@H](OC(=O)CCN5CCN([C@H]6O[C@@H]7O[C@]8(C)CC[C@H]9[C@H](C)CC[C@@H]([C@H]6C)[C@@]79OO8)CC5)CC[C@]4(C)[C@H]3CC[C@]12C (stereo not given in full)
IC50 (Plasmodium falciparum [21]): 24 nM | IC50 (Plasmodium falciparum [13]): 29 nM | IC50 (Plasmodium falciparum [26]): 31 nM | selectivity ratio [27]: 3900

CC(C)(N)CNC(=O)C[C@H]1CC[C@]2(CC1)OO[C@]1(O2)C2CC3CC(C2)CC1C3 [OZ277]
Activity (Plasmodium berghei [1]): 67% | Activity (Plasmodium falciparum [28]): 0.01% | Activity (Plasmodium berghei [29]): 60%

Oc1ccc(C2CCC3(CC2)OOC2(OO3)C3CC4CC(C3)CC2C4)cc1CN1CCCC1 (stereo not given)
IC50 (Plasmodium falciparum [13]): 4.8 nM | IC50 (Plasmodium falciparum [26]): 4.8 nM | Activity (Plasmodium berghei [30]): >99.7% | Time (Plasmodium berghei [31]): 25 days

C[C@@H]1CC[C@H]2C(CN3CCN(CCO)CC3)=C(C(F)(F)F)O[C@@H]3O[C@]4(C)CC[C@@H]1[C@]32OO4
Activity (Plasmodium berghei [32]): 100%

C[C@H]1[C@H](Nc2ccc(F)cc2)O[C@@H]2O[C@]3(C)CC[C@H]4[C@H](C)CC[C@@H]1[C@@]24OO3
ED90 (Plasmodium yoelii [33]): 0.6 mg/kg | IC50 (Plasmodium falciparum [20]): 0.64 ng/mL | IC50 (Plasmodium falciparum [21]): 0.64 ng/mL | ED90 (Plasmodium berghei [34]): 0.35 mg/kg | Ratio (Plasmodium berghei [35]): 13 | Ratio (Plasmodium yoelii [36]): 13
